Laboratory results: DBAASP
Values after ≈ are worked out from the molar mass of the structure shown. Each block holds one compound with its values, some of them ahead of it.

Key:
Assay in all cases: ≥ marks a high value that may be exact or a test limit, other limits are often not marked, values filed in µg/mL are converted to µM
[1] = tested on: Candida albicans ATCC 10231
[2] = tested on: Cryptococcus neoformans ATCC 32045
[3] = tested on: Escherichia coli ATCC 2592
[4] = tested on: Pseudomonas aeruginosa ATCC 10145
[5] = tested on: Staphylococcus aureus ATCC 33591
[6] = tested on: Escherichia coli K-12
[7] = tested on: Staphylococcus aureus JE2
[8] = tested on: Acinetobacter baumannii
[9] = tested on: Escherichia coli ATCC 25922
[10] = tested on: Escherichia coli K88
[11] = tested on: Escherichia coli K99
[12] = tested on: Escherichia coli UB1005
[13] = tested on: Escherichia coli
[14] = tested on: Klebsiella pneumoniae
[15] = tested on: Pseudomonas aeruginosa ATCC 27853
[16] = tested on: Pseudomonas aeruginosa CICC 21625
[17] = tested on: Pseudomonas aeruginosa CICC 21630
[18] = tested on: Pseudomonas aeruginosa PAO1
[19] = tested on: Pseudomonas aeruginosa
[20] = tested on: Salmonella enterica subsp. enterica serovar Pullorum C79-13
[21] = tested on: Salmonella enterica subsp. enterica serovar Typhimurium ATCC 14028
[22] = tested on: Salmonella enterica subsp. enterica serovar Typhimurium C77-31
[23] = tested on: Pseudomonas aeruginosa H187
[24] = tested on: Candida albicans
[25] = tested on: Candida parapsilosis CGMCC 2.3989
[26] = tested on: Candida tropicalis CGMCC 2.1975
[27] = tested on: Enterococcus faecalis ATCC 29212
[28] = tested on: Salmonella enterica subsp. enterica serovar Choleraesuis CVCC 503
[29] = tested on: Staphylococcus aureus ATCC 25923
[30] = tested on: Staphylococcus aureus ATCC 29213
[31] = tested on: Staphylococcus aureus ATCC 43300
[32] = tested on: Staphylococcus epidermidis ATCC 12228

MIC [1]: 61.7 µM (≈ 177 µg/mL)
MIC [2]: 7.9 µM (≈ 22.6 µg/mL)
MIC [3]: 8.14 µM (≈ 23.3 µg/mL)
MIC [4]: 21.6 µM (≈ 62 µg/mL)
MIC [5]: ≥ 87.2 µM
Structure (SMILES): C[C@H](NC(=O)[C@H](Cc1ccccc1)NC(=O)[C@H](CCCCN)NC(=O)[C@H](CCCCN)NC(=O)[C@H](C)NC(=O)[C@H](Cc1ccccc1)NC(=O)[C@H](CCCCN)NC(=O)[C@H](CCCCN)NC(=O)[C@H](C)NC(=O)[C@H](Cc1ccccc1)NC(=O)[C@H](CCCCN)NC(=O)[C@H](CCCCN)NC(=O)[C@H](C)NC(=O)[C@H](Cc1ccccc1)NC(=O)[C@H](CCCCN)NC(=O)[C@H](CCCCN)NC(=O)[C@H](C)NC(=O)[C@H](Cc1ccccc1)NC(=O)[C@H](CCCCN)NC(=O)[C@H](CCCCN)NC(=O)[C@H](C)NC(=O)[C@@H](N)Cc1ccccc1)C(=O)N[C@@H](CCCCN)C(=O)N[C@@H](CCCCN)C(=O)O [FAKKFAKKFAKKFAKKFAKKFAKK]

MIC [1]: 127 µM (≈ 354 µg/mL)
MIC [2]: 8.11 µM (≈ 22.6 µg/mL)
MIC [3]: 8.11 µM (≈ 22.6 µg/mL)
MIC [4]: 8.96 µM (≈ 25 µg/mL)
MIC [5]: ≥ 179 µM
Structure (SMILES): C[C@H](NC(=O)[C@H](CCCCN)NC(=O)[C@H](Cc1ccccc1)NC(=O)[C@H](C)NC(=O)[C@H](CCCCN)NC(=O)[C@H](Cc1ccccc1)NC(=O)[C@H](C)NC(=O)[C@H](CCCCN)NC(=O)[C@H](Cc1ccccc1)NC(=O)[C@H](C)NC(=O)[C@H](CCCCN)NC(=O)[C@H](Cc1ccccc1)NC(=O)[C@H](C)NC(=O)[C@H](CCCCN)NC(=O)[C@H](Cc1ccccc1)NC(=O)[C@H](C)NC(=O)[C@H](CCCCN)NC(=O)[C@H](Cc1ccccc1)NC(=O)[C@H](C)NC(=O)[C@H](CCCCN)NC(=O)[C@H](Cc1ccccc1)NC(=O)[C@H](C)NC(=O)[C@H](CCCCN)NC(=O)[C@@H](N)Cc1ccccc1)C(=O)O [FKAFKAFKAFKAFKAFKAFKAFKA]

MIC [6]: ≥ 38.3 µM
MIC [7]: ≥ 153 µM
Structure (SMILES): CC[C@H](C)[C@H](NC(=O)[C@@H](NC(=O)[C@H](CO)NC(=O)[C@H](C)NC(=O)[C@@H](NC(=O)CNC(=O)[C@H](CCCCN)NC(=O)[C@H](CCCCN)NC(=O)[C@@H](NC(=O)[C@@H](NC(=O)[C@H](CC(=O)O)NC(=O)[C@H](Cc1ccccc1)NC(=O)[C@H](CC(C)C)NC(=O)CN)C(C)C)[C@@H](C)CC)C(C)C)C(C)C)C(=O)NCC(=O)NCC(=O)N[C@@H](CC(C)C)C(=O)O [GLFDVIKKGVASVIGGL]

MIC [8]: ≥ 64 µM
MIC [9]: > 64 µM
MIC [10]: ≥ 64 µM
MIC [11]: ≥ 64 µM
MIC [12]: ≥ 64 µM
MIC [13]: > 64 µM
MIC [14]: > 64 µM
MIC [15]: > 64 µM
MIC [16]: ≥ 64 µM
MIC [17]: ≥ 64 µM
MIC [18]: > 64 µM
MIC [19]: > 64 µM
MIC [20]: ≥ 64 µM
MIC [21]: > 64 µM
MIC [22]: ≥ 64 µM
Structure (SMILES): CC[C@H](C)[C@H](N)C(=O)N[C@@H](CCCCN)C(=O)N1CCC[C@H]1C(=O)N[C@H](C(=O)N[C@H](C(=O)N[C@@H](CCCCN)C(=O)N1CCC[C@H]1C(=O)N[C@H](C(=O)N[C@H](C(=O)N[C@@H](CCCCN)C(=O)N1CCC[C@H]1C(=O)N[C@H](C(=O)N[C@H](C(=O)N[C@@H](CCCCN)C(=O)N1CCC[C@H]1C(=O)N[C@H](C(N)=O)[C@@H](C)CC)[C@@H](C)CC)[C@@H](C)CC)[C@@H](C)CC)[C@@H](C)CC)[C@@H](C)CC)[C@@H](C)CC [IKPIIKPIIKPIIKPI]

MIC [12]: 0.674 µM (≈ 2 µg/mL)
MIC [23]: 2.7 µM (≈ 8 µg/mL)
Structure (SMILES): CC[C@H](C)[C@H](NC(=O)[C@H](Cc1ccccc1)NC(=O)[C@H](CO)NC(=O)[C@H](CCCCN)NC(=O)[C@H](Cc1c[nH]c2ccccc12)NC(=O)[C@@H](N)CCCCN)C(=O)N[C@@H](CCCCN)C(=O)N[C@@H](CC(N)=O)C(=O)N[C@@H](CC(C)C)C(=O)N[C@@H](CCC(=O)O)C(=O)N[C@@H](CCCCN)C(=O)N[C@H](C(=O)N[C@@H](CC(C)C)C(=O)N[C@@H](CCCCN)C(=O)N[C@@H](CCCCN)C(=O)NCC(=O)N1CCC[C@H]1C(=O)N[C@H](C(=O)N[C@@H](CC(C)C)C(=O)N[C@@H](C)C(=O)N[C@@H](CC(N)=O)C(=O)N[C@@H](CC(C)C)C(=O)N[C@H](C(=O)N[C@@H](CO)C(=O)N[C@H](C(=O)N[C@H](C(=O)O)C(C)C)[C@@H](C)CC)C(C)C)[C@@H](C)CC)C(C)C [KWKSFIKNLEKVLKKGPILANLVSIV]

MIC [24]: 5.66 µM (≈ 18.5 µg/mL)
MIC [25]: 4 µM (≈ 13.1 µg/mL)
MIC [26]: 2 µM (≈ 6.54 µg/mL)
MIC [27]: > 64 µM
MIC [12]: 2 µM (≈ 6.54 µg/mL)
MIC [15]: > 64 µM
MIC [18]: > 64 µM
MIC [21]: > 64 µM
MIC [22]: ≥ 64 µM
MIC [29]: > 64 µM
MIC [30]: > 64 µM
MIC [31]: > 64 µM
MIC [32]: > 64 µM
Structure (SMILES): CC(C)C[C@H](NC(=O)[C@H](CCCN=C(N)N)NC(=O)[C@H](C)NC(=O)[C@H](CS)NC(=O)[C@H](CC(C)C)NC(=O)[C@H](CCCCN)NC(=O)[C@H](CCCCN)NC(=O)[C@H](CC(C)C)NC(=O)[C@H](CCCN=C(N)N)NC(=O)[C@H](C)NC(=O)[C@H](CS)NC(=O)[C@H](CC(C)C)NC(=O)[C@H](CCCCN)NC(=O)[C@H](CCCCN)NC(=O)[C@H](CC(C)C)NC(=O)[C@H](CCCN=C(N)N)NC(=O)[C@H](C)NC(=O)[C@H](CS)NC(=O)[C@H](CC(C)C)NC(=O)[C@H](CCCCN)NC(=O)[C@H](CCCCN)NC(=O)[C@@H](N)CC(C)C)C(=O)N[C@@H](CCCCN)C(=O)N[C@@H](CCCCN)C(=O)N[C@@H](CC(C)C)C(=O)N[C@@H](CS)C(=O)N[C@@H](C)C(=O)N[C@@H](CCCN=C(N)N)C(N)=O [LKKLCARLKKLCARLKKLCARLKKLCAR]
MIC [28]: ≥ 64 µM
